The test system of data set [1] is PLC/PRF/5. The experiment in a line: cells. The conditions noted are these: Homo sapiens, PLC-PRF-5, read-out: In Vitro Cellular IC50 PLC/PRF/5.
Experimental: (§2) Cells were cultivated at 37° C., 5% CO2 in media containing 10% FBS and 2 mM glutamine Cells were routinely monitored with MycoAlert™ PLUS Mycoplasma Detection Kit (Lonza Walkersville, Inc.) to make sure they were mycoplasma free. Antibiotics (100 U/mL of penicillin and 100 μg/mL of streptomycin) were only added to the media used for compound dilution and cells in 96-well assay plates.
(§3) For a typical screening experiment, cells (100 μL/well) are inoculated into 96 well microtiter plates at plating densities ranging from 2,000 to 30,000 cells/well depending on the doubling time of individual cell lines and assay linearity. […] Suspension cells are treated with test compounds immediately after cell inoculation.
(§4) Test compounds are serially diluted (3-fold or 4-fold, 8-concentration) using the same media and added to the plates (15 to 25 μL/well). After 72 h of cultivation, the plates are assayed for cell cytotoxicity/viability by using the following two methods.
(§5) Cells in plates are fixed with cold trichloroacetic acid (TCA) (50% w/v in DI water, 1/4 volume of the medium in each well), and incubated at 4° C. for 1 h (adherent cells) or 2 h (suspension cells). The plates are washed 5 times (tap water×3, DI water×2) and air-dried. SRB solution 0.4% (w/v) in 1% acetic acid is added to each well (60 μL/well) and the plates are incubated at room temperature for 30 min, then washed with 1% acetic acid solution 4 times, and air-dried.
(§6) The plates are added CellTiter-Glo® Reagent (95 μL/well) and read the luminescence on a BioTek H4 reader per manufacture's protocol.
(§7) The raw data are processed using BioTek's Software Gen5 (v2.03.01) to generate inhibitory IC50 values.
The test system of data set [2] is A-431. Kind of data set: Anti-proliferative assay (cellular IC50), A-431. The conditions noted are these: Homo sapiens, A-431, read-out: In Vitro Cellular IC50 A-431.
Experimental: as §2, §3, §4, §5, §6, §7
For data set [3], the system named is Raji. The experiment in a line: Anti-proliferative assay (cellular IC50), Raji. The conditions noted are these: Homo sapiens, read-out: In Vitro Cellular IC50 Raji.
Experimental: as §2, §3, §4, §5, §6, §7
A short description of data set [4]: Microsomal stability, human liver microsomes. The conditions noted are these: human, microsomes, 0.75 h, 5 μM, pH 7.4. The essentials: (§1)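 Liver microsomes at 0.5 mg/mL protein incubated with compound for 30 min (mouse), 45 min (rat), or 30 or 45 min (human). Reaction stopped with ice-cold acetonitrile containing 0.3% formic acid; % parent remaining measured by LC-MS.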

In data set [5] the target is T1, p110α(E545K)/p85α (Homo sapiens, UniProt P42336, E545K).
T1 construct: purchased SignalChem P27-15H
The experiment in a line: Kinase enzyme assay (ADP-Glo), PI3Kα (E545K). It counts as biochemical. The conditions noted are these: read-out: In Vitro Enzymatic IC50 PI3Kα (E545K). For orientation: ADP-Glo turns the ADP formed in a reaction into a luminescent signal.

The subject of data set [6] is PC-3 tumors. The experiment in a line: Target modulation in PC-3 prostate cancer xenograft (histone H3 acetylation, Western blot). In kind it is in vivo, mouse. The conditions noted are these: BALB/c nude mice, oral, EX1 150 mg/kg, EX78 100 mg/kg. The source says:
Blood samples, tumors and other tissues were collected for PK/PD studies at the indicated time points (two mice each time point).
The lanes and the concentrations used were as follows: […]
(In general: Immunoblotting shows a protein as a band on a membrane.)

Data set [7] can be described thus: Microsomal stability, mouse liver microsomes. The conditions noted are these: mouse, microsomes, 0.5 h, 5 μM, pH 7.4. Here is the method:
GIBIO pooled human liver microsomes (HLM) (Cat # HMMCPL), mouse liver microsomes (MLM) (Cat # BCMCPL), and rat liver microsomes (RLM) (Cat # RTMCPL) were purchased from Life Technologies. […] Samples are incubated for 30, 45, or 60 min. Reaction is terminated with ice-cold acetonitrile 0.3% formic acid. Samples are subsequently centrifuged at 4° C. for 15 min at 20,000×g. The supernatant is analysed by LC-MS.
Compound in vitro metabolic stability was assayed using liver microsomes (LM) at 0.5 mg/mL of proteins, incubated for 30 min (mouse, MLM), 45 min (rat, RLM), 30 or 45 min (human, HLM). % of remaining parent compound was measured using LC-MS.
(Liver microsomes are vesicles of endoplasmic reticulum, rich in cytochrome P450 enzymes.)

Data set [8] is described as follows: Microsomal stability, rat liver microsomes. The conditions noted are these: rat, microsomes, 0.75 h, 5 μM, pH 7.4. The essentials:
as §1

The test system of data set [9] is histone 3 (Lys 9) and α-tubulin acetylation (HDACs) in PC-3 cells. Kind of data set: Western blot, acetylation of histone 3 (Lys 9) and α-tubulin in PC-3 cells. It counts as cell-based, human. The conditions noted are these: 24 h, 1 or 10 μM. Here is the method:
Proteins in cell lysates are resolved by SDS-PAGE and transferred to PVDF and probed with appropriate primary and secondary antibodies. […] Representative Western blot images are shown in FIG. 15 and analyzed results are presented by FIGS. 17 to 20.
PC-3 cells were treated with test compounds at the following concentrations (all contain 0.1% DMSO) for 24 h at 37° C., and then processed according to section of Western Blot Analysis.
The graph represents results from two Western Blot analyses. […] Vehicle DMSO (0.1%) was used as blank control, and its acH3 level was normalized to 1. Y Axis is expressed as Mean±SD if applicable.
Vehicle DMSO (0.1%) as blank control, and its acetylation level was normalized to 1. Y Axis is expressed as Mean±SD if applicable.

In data set [10] the target is T2, PI3Kβ (Homo sapiens, UniProt P42338).
T2 construct: purchased SignalChem or BPS P28-10H / 40622
The experiment in a line: Kinase enzyme assay (ADP-Glo), PI3Kβ. The conditions noted are these: read-out: In Vitro Enzymatic IC50 PI3Kβ. It counts as biochemical.

Each structure is given as a SMILES string.

T1 sequence (P42336 whole entry E545K): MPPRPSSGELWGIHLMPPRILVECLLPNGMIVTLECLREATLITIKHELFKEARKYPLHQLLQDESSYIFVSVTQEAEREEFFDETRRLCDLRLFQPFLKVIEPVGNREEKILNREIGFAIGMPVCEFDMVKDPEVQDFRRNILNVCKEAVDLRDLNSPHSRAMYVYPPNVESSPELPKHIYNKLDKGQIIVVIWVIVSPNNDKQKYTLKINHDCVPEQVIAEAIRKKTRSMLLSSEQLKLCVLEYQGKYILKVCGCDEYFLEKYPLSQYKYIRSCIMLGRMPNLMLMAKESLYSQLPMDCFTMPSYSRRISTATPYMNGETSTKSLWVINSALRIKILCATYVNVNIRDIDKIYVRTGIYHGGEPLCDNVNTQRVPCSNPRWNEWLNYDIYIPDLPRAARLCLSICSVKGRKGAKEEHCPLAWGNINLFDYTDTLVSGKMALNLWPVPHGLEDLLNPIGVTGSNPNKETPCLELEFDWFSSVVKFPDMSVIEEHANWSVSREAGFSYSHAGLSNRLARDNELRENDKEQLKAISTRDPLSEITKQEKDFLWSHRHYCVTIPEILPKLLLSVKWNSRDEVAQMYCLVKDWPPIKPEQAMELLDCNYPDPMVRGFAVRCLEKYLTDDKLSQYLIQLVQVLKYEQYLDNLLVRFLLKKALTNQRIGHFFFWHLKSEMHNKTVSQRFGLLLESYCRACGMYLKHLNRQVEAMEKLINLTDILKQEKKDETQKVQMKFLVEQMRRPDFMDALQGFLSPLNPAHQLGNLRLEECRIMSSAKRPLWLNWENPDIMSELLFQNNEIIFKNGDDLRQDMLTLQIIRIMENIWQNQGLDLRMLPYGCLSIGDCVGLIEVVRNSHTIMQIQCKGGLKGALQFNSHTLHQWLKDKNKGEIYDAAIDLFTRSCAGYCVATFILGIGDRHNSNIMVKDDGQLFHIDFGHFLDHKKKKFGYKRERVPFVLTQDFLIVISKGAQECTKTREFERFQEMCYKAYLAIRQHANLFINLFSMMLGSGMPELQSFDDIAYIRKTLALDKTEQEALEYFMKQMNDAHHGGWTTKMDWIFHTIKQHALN
T1 sequence (P27986 whole entry partner): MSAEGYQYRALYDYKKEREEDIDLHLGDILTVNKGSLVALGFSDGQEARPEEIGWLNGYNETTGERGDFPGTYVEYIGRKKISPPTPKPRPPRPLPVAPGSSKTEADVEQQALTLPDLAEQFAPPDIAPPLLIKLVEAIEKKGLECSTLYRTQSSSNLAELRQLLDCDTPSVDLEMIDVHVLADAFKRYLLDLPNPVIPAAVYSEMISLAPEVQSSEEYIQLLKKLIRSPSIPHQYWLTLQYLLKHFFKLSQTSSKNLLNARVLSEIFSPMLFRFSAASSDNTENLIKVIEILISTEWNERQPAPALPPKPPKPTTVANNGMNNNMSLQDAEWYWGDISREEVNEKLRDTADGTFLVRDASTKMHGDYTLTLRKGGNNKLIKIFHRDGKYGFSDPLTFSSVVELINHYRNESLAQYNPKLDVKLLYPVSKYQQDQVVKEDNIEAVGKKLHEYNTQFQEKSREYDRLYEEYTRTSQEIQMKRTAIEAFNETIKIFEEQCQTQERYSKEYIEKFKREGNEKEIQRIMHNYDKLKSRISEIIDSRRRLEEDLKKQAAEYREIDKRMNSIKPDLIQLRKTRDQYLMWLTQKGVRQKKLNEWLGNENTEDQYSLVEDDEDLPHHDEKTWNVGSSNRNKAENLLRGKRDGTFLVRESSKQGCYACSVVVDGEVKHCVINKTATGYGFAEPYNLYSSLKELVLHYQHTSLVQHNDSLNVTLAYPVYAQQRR
T2 sequence (P42338 whole entry): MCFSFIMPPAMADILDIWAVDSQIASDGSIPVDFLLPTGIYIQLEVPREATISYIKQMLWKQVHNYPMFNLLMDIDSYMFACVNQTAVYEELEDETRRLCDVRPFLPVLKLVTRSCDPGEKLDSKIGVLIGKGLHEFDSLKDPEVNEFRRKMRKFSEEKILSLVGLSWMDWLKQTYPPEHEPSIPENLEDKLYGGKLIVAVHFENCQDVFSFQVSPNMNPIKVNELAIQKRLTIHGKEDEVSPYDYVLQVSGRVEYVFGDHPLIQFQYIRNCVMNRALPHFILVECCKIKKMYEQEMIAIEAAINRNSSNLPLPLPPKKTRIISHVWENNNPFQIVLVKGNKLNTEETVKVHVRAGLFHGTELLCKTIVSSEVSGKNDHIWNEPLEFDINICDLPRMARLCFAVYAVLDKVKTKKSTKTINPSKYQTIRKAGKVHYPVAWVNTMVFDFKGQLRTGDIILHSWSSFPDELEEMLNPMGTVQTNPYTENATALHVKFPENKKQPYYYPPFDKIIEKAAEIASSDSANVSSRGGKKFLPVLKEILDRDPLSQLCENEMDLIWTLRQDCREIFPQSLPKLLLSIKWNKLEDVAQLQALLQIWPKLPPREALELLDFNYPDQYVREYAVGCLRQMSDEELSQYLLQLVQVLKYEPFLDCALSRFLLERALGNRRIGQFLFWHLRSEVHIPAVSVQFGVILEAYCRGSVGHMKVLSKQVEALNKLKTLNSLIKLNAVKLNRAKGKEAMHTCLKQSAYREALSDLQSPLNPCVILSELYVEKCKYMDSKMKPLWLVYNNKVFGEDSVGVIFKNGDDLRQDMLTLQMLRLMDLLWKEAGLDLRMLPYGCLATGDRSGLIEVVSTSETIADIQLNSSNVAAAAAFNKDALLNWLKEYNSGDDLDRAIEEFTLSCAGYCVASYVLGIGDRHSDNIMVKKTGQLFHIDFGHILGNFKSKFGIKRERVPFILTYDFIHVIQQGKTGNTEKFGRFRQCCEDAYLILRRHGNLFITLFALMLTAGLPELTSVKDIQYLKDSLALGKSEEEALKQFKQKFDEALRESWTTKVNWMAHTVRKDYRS
T2 sequence (P27986 whole entry partner): as the sequence (P27986 whole entry partner) above

As for `CS(=O)(=O)N1CCN(Cc2cc3nc(-c4cccc5[nH]ncc45)nc(N4CCOCC4)c3s2)CC1` [GDC-0941, reference compound], the IC50 in data set [1] is 2000 to 10000 nM; in [2] it was less than 500 nM; in data set [3], 2000 to 10000 nM.

For the compound `CC(C)n1cnc2c(-c3cccc(OCCCC(=O)NO)c3)nc(N3CCOCC3)nc21` [compound 1], the IC50 in [1] was 500 to 2000 nM; in data set [2] it was 2000 to 10000 nM; in data set [5], 1000 to 10000 nM; in data set [3] it was 500 to 2000 nM. The “Microsomal Stability HLM, % of remaining parent compound” value in [4] was determined as 101%. In [6], the “Hyperacetylation of H3 in PC-3 tumors” value is reported as “Hyperacetylation of H3 in PC-3 tumors was confirmed”. Further, the “Microsomal Stability MLM, % of remaining parent compound” value in data set [7] amounted to 96%. Moreover, the “Microsomal Stability RLM, % of remaining parent compound” value in data set [8] was 70%. The “Hyperacetylation of histone 3 (Lys 9) and α-tubulin” value in [9] was “the hyperacetylation effect is dose-dependent”.

Turning to `CCn1c(CN(C)Cc2ccc(C(=O)NO)cc2)nc2c(N3CCOCC3)nc(-c3cnc(N)nc3)nc21` [compound 7], the IC50 in data set [10] and in data set [5] was 10 to 100 nM in each case.
